From patent US9796985B2, “Compositions and method for modulating the sensitivity of plants to cytokinin” (Trustees of Dartmouth College, priority 2013, dated 2017)
Where a SMILES comes first, the peptide text is derived from it. The star is where a group is joined. Cbz = O=C(OCc1ccccc1)*

Experiments:
proteasome = assay: Role of the proteasome in ARR stability, immunoblot of protoplasts; assay type: cell-based, Arabidopsis; settings: 10 μM MG132, 3 hours
ARR7 and ARR15 = settings: wild-type plants, one hour treatment with 100 nM t-zeatin, qRT-PCR
Description: (§1) Cytokinin Growth and Molecular Response Analyses. Hypocotyl and root growth analyses were performed according to known methods (Argyros, et al. (2008) Plant Cell 20(8):2102-2116) and hypocotyl and root lengths were measured using ImageJ software (version 1.32; National Institutes of Health). Root meristem size was determined via established methods (Perilli & Sabatini (2010) Methods Mol. Biol. 655:177-187). The apical meristem was visualized by bright field microscopy, with tissue sectioning, fixation, and staining performed according to known methods (Chiang, et al. (2012) Plant Physiol. 160(1):332-348). Total RNA isolation, cDNA production, and quantitative RT-PCR (qRT-PCR) were performed via established methods (Argyros, et al. (2008) supra). Transcript abundances were calculated using the comparative CT method, with 13-TUB3 (At5g62700) as the normalized control.
(§2) Plant Growth Conditions and Cytokinin Treatment. Seeds were surface-sterilized and cold-treated for 3 days in the dark at 4° C. to ensure uniform germination before being moved into the light. For molecular and physiological assays, seedlings were grown on medium containing 1× Murashige and Skoog (MS) salts with vitamins (Research Products International Corp.), 1% sucrose, and 0.8% phytoagar (Research Products International Corp.) at 22° C. under continuous white light (50 μE·m^−2·s^−1) unless specified otherwise. […]

[1] = test system: dark-grown, wild-type seedlings; settings: increasing concentrations of t-zeatin
Description: as §1, §2

SMILES	protein level of ARR1 (proteasome; protoplasts from ARR1-HA overexpression line)	protein level of ARR12 (proteasome; protoplasts from ARR12-Myc overexpression line)	induction of ARR7 and ARR15 expression (ARR7 and ARR15)	hypocotyl elongation [1]
CC(C)C[C@@H](C=O)NC(=O)[C@H](CC(C)C)NC(=O)[C@H](CC(C)C)NC(=O)OCc1ccccc1 [MG132] (Cbz-Leu-Leu-Leu-aldehyde)	increased	increased		
C/C(=C\CNc1ncnc2[nH]cnc12)CO [t-zeatin, 6-(4-hydroxy-3methylbut-trans-2-enylamino) purine]			two- to four-fold	inhibition of hypocotyl elongation
